# Assay results taken from patent publication EP3570868B1, “[…] ANTIMICROBIAL PEPTIDES AND THEIR APPLICATIONS FOR THE TREATMENT AND PREVENTION OF MUSCU[…]” (Ustav Organicke Chemie a Biochemie AV CR, v.v.i., priority 2017, dated 2018).
# Peptide text beside a SMILES is read from it.
# Columns and labels:
# Bacillus subtilis = assay type: cell-based; conditions: B.s.; 37° C for 20 h
# Experimental: (§1) Gram-positive bacteria (Bacillus subtilis, Staphylococcus aureus, Staphylococcus epidermidis and Enterococcus faecalis), Gram-negative bacteria (Escherichia coli and Pseudomonas aeruginosa) and the yeast (Candida albicans) were grown to exponential phase and then were diluted with fresh medium. BHI medium (Oxoid, Great Britain) was used for Enterococcus faecalis; YPD medium containing yeast extract, peptone and glucose was used for Candida albicans and LB medium (Sigma, Czech Republic) was used for the remaining microorganisms. Then the microorganisms were added to the solutions of the tested antimicrobial peptides in LB medium in multi-well plates, so that the final peptide concentration it the wells was in the range of 0.5 to 100 µmοl.1^-1. The plates were incubated at 37° C for 20 h while being continuously shaken in a Bioscreen C (Oy Growth Curves AB Ltd., Helsinki, Finland). Absorbance was measured at 540 nm every 15 min. Antimicrobial activity (Table 2) was determined as a quantitative minimum inhibitory concentration (MIC) by observing bacterial growth in the presence of different concentrations of tested peptides. In the experiments, ca 10^5 CFU of bacteria or candida per well were used. Tetracycline in a concentration range of 0.5 - 100 µmol.1^-1 was used as a standard.
# (§2) Clinical isolates of bacteria were obtained from University Hospital in Motol, Prague, Czech Republic and from Liberec Regional Hospital, Czech Republic. Methicillin resistant Staphylococcus aureus (MRSA) 6271 and Pseudomonas aeruginosa 5482 were from the Czech National Collection of Type Cultures, the National Institute of Public Health, Prague, Czech Republic. Other bacteria were from the Czech Collection of Microorganisms, Brno, Czech Republic. Candida albicans came from the Faculty of Medicine, Palacky University, Olomouc, Czech Republic. Candida tropicalis ATCC 750 and Candida glabrata DSY 565 were obtained from the Institute of Physiology, Academy of Sciences of the Czech Republic.
# Candida albicans = assay type: cell-based; conditions: C.a.; 37° C for 20 h
# Experimental: as §1, §2
# Escherichia coli = assay type: cell-based; conditions: E.c.; 37° C for 20 h
# Experimental: as §1, §2
# [1] = system: MRSA (clin. isolate Liberec); assay type: cell-based, Staphylococcus aureus; conditions: 37° C for 20 h
# Experimental: as §1, §2
# [2] = system: MRSA (clin. isolate Motol); assay type: cell-based, Staphylococcus aureus; conditions: 37° C for 20 h
# Experimental: as §1, §2
# MRSA 6271 = assay type: cell-based, Staphylococcus aureus; conditions: 37° C for 20 h
# Experimental: as §1, §2
# [3] = system: S.e. (clin. isolate Motol); assay type: cell-based, Staphylococcus epidermidis; conditions: 37° C for 20 h
# Experimental: as §1, §2
# [4] = system: E.f. (clin. isolate Motol); assay type: cell-based, Enterococcus faecalis; conditions: 37° C for 20 h
# Experimental: as §1, §2
# [5] = system: P.a. (clin. isolate Liberec); assay type: cell-based, Pseudomonas aeruginosa; conditions: 37° C for 20 h
# Experimental: as §1, §2
# P.a. 5482 = assay type: cell-based, Pseudomonas aeruginosa; conditions: 37° C for 20 h
# Experimental: as §1, §2
# human red blood cells = experiment: Determination of haemolytic activity; assay type: cell-based; conditions: human red blood cells (5% v/v), 1 h at 37 °C; concentration for lysis of 50% of erythrocytes
# Experimental: The peptides in the concentrations 2-400 µmol.1^-1 were incubated with the suspension of human red blood cells (5% v/v) for 1 h at 37 °C in a physiological solution at a final volume of 0.2 ml. The samples were then centrifuged for 5 min at 250 g. The absorbance of the supernatant was determined at 540 nm. 0.2% (v/v) TRITON X100 was used as a control for 100% haemolysis. Haemolytic activity is expressed as the peptide concentration required for lysis of 50% of human erythrocytes in the assay (LC50). Table 2. Antimicrobial and haemolytic activity of I up to XIII peptides and tetracycline.
# [6] = system: S. aureus (clin. isolate Liberec); experiment: Induced osteomyelitis model in femur heads: effect of peptides released from carrier on infection in the bone graft; assay type: cell-based; conditions: ChronOS (200 mg), 10 mg, two days
# Experimental: (§3) 3-4 holes of a diameter of 5 mm and a depth of 10 mm are drilled with a surgical spoon into a femur head under sterile conditions (spongy part of the bone in the resection site). Thereafter, this bone graft is put into a beaker of appropriate size and lined with sterile gauze squares. The gauze is moistened with sterile physiological saline to prevent drying of the bone. Then, suspension of multiplied microbes in an appropriate medium (50-100 µl) at a concentration of 10^7 to 10^9 CFU is sequentially applied to the prepared holes in the bone graft and allowed to incubate for 1-2 days. […] Beaker with the infected bone graft is covered with a sterile Petri dish. During the experiment, induced osteomyelitis models are kept protected from light at room temperature.
# (§4) After the incubation, the infected holes in the bone are filled with a mixture of the local carrier, and a peptide selected from the series of peptides of formulae I to XIII or their specific enantiomers (Figure 1). For comparison, one of the holes is filled with the local carrier without peptide, or the carrier filled with antibiotic (vancomycin or gentamicin). A commercially available two-component material supplied by Synthes (Synthes GmbH, Switzerland) under the name ChronOS Inject was used as the carrier. Its solid component comprises a mixture of calcium phosphates CaHPO4.2H2O and Ca3(PO4)2 and additives, the liquid component is 0.5% (vol./vol.) solution of hyaluronic acid.
# (§5) After two days, the filling is thoroughly removed with a surgical spoon and empty holes are wiped with moistened sterile cotton swab, which is then extracted into 400 µl physiological saline. The extract is diluted in a tenfold serial dilution and each diluted suspension is cultured on agar in Petri dishes; the culture is evaluated on the following day. […] The result of the peptide effect is also compared with the result of the effect of antibiotics. In some cases, microbiological examination of the bone tissue taken with a surgical spoon from a deeper area of the drilled holes is performed. […] Table 3. Evaluation of the effect of antimicrobial peptides released from the carrier on an infection in the bone graft. Effect of antimicrobial activity is expressed in the number of CFU (colony-forming units) in the infected hole after swabbing.
# [7] = system: S. epidermidis (clin. isolate Motol); experiment: as above; assay type: cell-based; conditions: ChronOS (300 mg); 10 mg, separate holes; two days; carrier without peptide 1,2x10^5
# Experimental: as §3, §4, §5
# [8] = system: Staphylococcus aureus (MRSA 6271); experiment: Eradication of the infection inside the spongy bone tissue (bone grafts, peptide in carrier); assay type: cell-based; conditions: carrier (200 mg) with peptide VIII (10 mg), two days
# Experimental: Experiments was carried out similarly as described above using two graft bones. The suspension of Staphylococcus aureus (MRSA 6271) in LB medium (50 - 100 µl) in the concentration 10^9 CFU/ml was pipetted into two holes drilled in each bone graft. On the next day the one hole in one bone graft was filled with the carrier (200 mg) blended with peptide VIII (10 mg). The second hole was filled with carrier alone (200 mg). In the second bone graft the two holes were filled identically.
# The experiments were evaluated after two days of the treatment by the comparison of the number of bacterial colonies (CFU/ml) related to the infected hole in which the peptide was released from the carrier and acted against the infection, against the number of the colonies related to the infected hole which was filled only with the carrier alone. The results of these two independent experiments which are summarized in Table 5 clearly show high efficacy of the peptide VIII. Table 5. Effect of peptide VIII on the eradication of the infection inside the spongy bone tissue Carried out in two independent experiments.
# [9] = system: MRSA (clin. isolate Liberec); experiment: Biofilm formation on the surface of a bone cement implant in femur heads; assay type: cell-based, Staphylococcus aureus; conditions: two days, cement without peptide 7,0x10^6
# Experimental: The resulting elastic paste is placed into a 2 ml plastic syringe (without needle) and pressed into the infected holes in the spongy part of the bone, where it polymerizes and hardens. For comparison, other similarly infected holes are filled with cement containing only an antibiotic or antimycotic agent. For comparison, a Vancogenx® cement (Tecresa S. p. A., Italy) is used, made from a mixture of a powdered polymer component containing vancomycin and gentamicin. The mixture in an amount of 125 mg is mixed with liquid monomer (50-60 µl) and then pressed into the openings as described above. In another embodiment, the cements are applied to uninfected holes, allowed to harden, and then microbes are pipetted into the hole excavated between implants. From there they penetrate through bone tissue and settle on the implants with consequent formation of biofilms.
# After two days, implants are removed with metal spikes and tweezers, mechanically cleaned from debris of bone tissue, and washed four times with physiological saline (0.5 ml) in plastic tubes to remove any residual planktonic microbes or bone cells from their surface. The implants in closed tubes with 0.4 ml saline are then sonicated four times for 3 min with occasional shaking. The of microbial biofilm on the surface of the implant is thus disrupted and microbes are loosed into the physiological saline. […]
# [10] = system: Candida albicans yeast (clinical isolate Olomouc); experiment: Comparison of two similar halictin peptides for biofilm formation on the implant surface (yeast pipetted into a hole between implants); assay type: cell-based; conditions: 3.5 mg peptide in 100 mg powder cement component; two days; implant without peptide 1.8 × 10^3
# Experimental: The experiment was performed under similar conditions as described in Example 5. Here, 100 mg of the powder cement component was used to prepare a paste, which was mixed with in 3.5 mg of peptide XIII and subsequently 52 µl of liquid component. The resulting paste was thoroughly mixed and then pressed into a hole prepared in the spongy part of the bone. To a next hole in the spongy part of the same bone a paste was pressed, containing comparative peptide Hal 2/4 (3.5 mg) with the sequence H-[…]NH2, which was also prepared from 100 mg of the powder component and 52 µl of the liquid component. The third hole was filled with paste without peptide prepared from the same amount of components. The Candida albicans yeast (clinical isolate Olomouc), grown in YPG, was pipetted in the hole excavated between implants equidistant (approximately 1 cm) from each. From there, the yeast penetrated through the bone tissue and was deposited on the implant with consequent formation of biofilms.
# Then the implants in closed tubes with 0.4 ml of saline were treated ultrasonically four times for three minutes with occasional shaking. This way, microbial biofilm on the surface of the implant was disrupted and microbes loosed into the physiological saline. The resulting suspension was then diluted in a decimal dilution series for culturing on agar. […]
SMILES,Antimicrobial activity MIC (Bacillus subtilis),Antimicrobial activity MIC (Candida albicans),Antimicrobial activity MIC (Escherichia coli),Antimicrobial activity MIC [1],Antimicrobial activity MIC [2],Antimicrobial activity MIC (MRSA 6271),Antimicrobial activity MIC [3],Antimicrobial activity MIC [4],Antimicrobial activity MIC [5],Antimicrobial activity MIC (P.a. 5482),Hemolytic activity LC50 (human red blood cells),"CFU/hole ([6]; separate holes, carrier without peptide 3,9x10^6)",CFU/hole [7],"CFU/hole ([8]; first experiment, no peptide 1.2x10^7)","CFU/hole ([8]; second experiment, no peptide 3.6x10^6)","CFU/hole ([6]; carrier without peptide 2,0x10^6)",CFU/implant [9],number of colonies from the surface of the implant [10]
CC[C@H](C)[C@H](NC(=O)[C@H](CCCCN)NC(=O)[C@H](CCCCN)NC(=O)[C@H](CC(C)C)NC(=O)[C@H](CC(C)C)NC(=O)[C@H](CCCCN)NC(=O)[C@@H](NC(=O)[C@H](Cc1c[nH]c2ccccc12)NC(=O)[C@H](CCCCN)NC(=O)CN)C(C)C)C(=O)N[C@@H](CC(C)C)C(=O)N[C@@H](CCCCN)C(N)=O [Peptide VIII] (H-GKWVKLLKKILK-NH2),"2,0 µmol.l^-1","6,3 µmol.l^-1","6,3 µmol.l^-1","5,0 µmol.l^-1","10,0 µmol.l^-1","9,0 µmol.l^-1","2,5 µmol.l^-1",>100 µM,"12,7 µmol.l^-1","3,0 µmol.l^-1",>400 µmol/L,0 CFU/hole,0 in all cases CFU/hole,0 CFU/ hole,4.8x10^2 CFU/ hole,–,–,–
CC[C@H](C)[C@H](NC(=O)[C@H](CCCCN)NC(=O)[C@H](CCCCN)NC(=O)[C@H](CC(C)C)NC(=O)[C@H](CCSC)NC(=O)[C@H](CCCCN)NC(=O)[C@H](CCSC)NC(=O)[C@H](Cc1c[nH]c2ccccc12)NC(=O)[C@H](CCCCN)NC(=O)CN)C(=O)N[C@@H](CC(C)C)C(=O)N[C@@H](CCCCN)C(N)=O [XI] (H-GKWMKMLKKILK-NH2),"2,5 µmol.l^-1","12,7 µmol.l^-1","20,0 µmol.l^-1","10,0 µmol.l^-1","20,0 µmol.l^-1","20,0 µmol.l^-1","3,2 µmol.l^-1",>100 µM,"12,7 µmol.l^-1","5,3 µmol.l^-1",>>200 µmol.l^-1,–,–,–,–,"2,5 x10^3 CFU/hole",0 CFU/implant,–
"CC[C@H](C)[C@H](NC(=O)[C@H](CCCCN)NC(=O)[C@H](CCCCN)NC(=O)[C@H](CC(C)C)NC(=O)[C@H](CC(C)C)NC(=O)[C@H](CO)NC(=O)[C@H](CCSC)NC(=O)[C@H](Cc1c[nH]c2ccccc12)NC(=O)[C@@H](N)CCCCN)C(=O)N[C@@H](CC(C)C)C(=O)N[C@@H](CCCCN)C(N)=O [Hal 4/2, reference compound] (H-KWMSLLKKILK-NH2)",–,–,–,–,–,–,–,–,–,–,–,–,–,–,–,–,–,2.8 × 10^2 CFU/implant
